In patent US20220402980A1, “CHROMOGRANIN A-DERIVED PEPTIDES AND USES THEREOF” (OSPEDALE SAN RAFFAELE S.R.L., priority 2019, published 2022):
Where a SMILES comes first, the peptide text is derived from it.

How the values were obtained:
[1] = Peptide stability in mouse liver microsomal preparations (RP-HPLC); type: in vitro ADME; conditions: C57BL/6, mouse, liver microsomes; 37° C.; read-out: t1/2 in mouse liver microsomes (converted)
Procedure: FIG. 14. Stability of peptides 4 and 5 in murine liver microsomes as determined by RP-HPLC. a) RP-HPLC of 4 and 5 after incubation at 37° C. in murine liver microsomes. Peak 1 corresponds to 4 and 5. The peptides were added to murine liver microsomes (454 - μg/ml, final concentration) and incubated for the indicated time, diluted with an equal volume of 90% acetonitrile containing 0.1% TFA and analyzed onto a LiChrospher C18 column (16 ag). No peptide indicates liver microsome aliquot without the peptide. b) Quantification of Peak 1 area (left panel) and height (right panel) of the indicated peptides. The corresponding half-life is also shown.
The stability of compound 4 and 5 in mouse liver microsomal preparations was assessed by HPLC analysis. To this aim microsomes were prepared as follows: 11 g of mouse liver tissue (C57BL/6 mice) was homogenized in cold PBS supplemented with 0.25 M sucrose (3 ml/g of tissue) using a Potter-Elvehjem homogenizer (10 strokes), followed by additional homogenization using a rotor-stator homogenizer (40 sec). The homogenate was filtered through 70 pm cell-strainers, centrifuged three times to remove insoluble materials (500 x g, 5 min; 3000 x g, 30 min; 110000 x g, 90 min, 4° C.). […] Protein concentration was measured by measuring the absorbance at 280 nm with a NanoDrop spectrophotometer (Thermo Scientific). […]

αvβ6 = biological target: T1, αvβ6 (Homo sapiens, UniProt P06756+P18564); experiment: Competitive integrin binding assay (isoDGR/STV-HRP probe), αvβ6-coated plates; conditions: Table 3a and text; ± standard error of the mean; read-out: Ki αvβ6
T1 construct: recombinant human αvβ6 extracellular domain (R&D Systems); purchased R&D Systems (Minneapolis, Minn.)
Procedure: (§1) Peptide binding was measured by a competitive binding assay using as integrin probe a complex made by a N-terminal acetylated isoDGR peptide biotinylated at the E-amino group of the lysine, acetyl-Ciso[…]-bio (SEQ ID No. 29), and a streptavidin-peroxidase conjugate (called isoDGR/STV-HRP)[43].
(§2) Each mixture was then added to integrin-coated wells and left to incubate for 2 h at room temperature. After washing with 25 mM Tris-HCl, pH 7.4, containing 150 mM sodium chloride, 1 mM magnesium chloride, 1 mM manganese chloride, each well was filled with a chromogenic solution (o-phenylenediamine dihydrochloride) and left to incubate for 30 min at room temperature. The chromogenic reaction was stopped by adding 1 N sulfuric acid. The absorbance at 490 nm was then measured using a microtiterplate reader. Ki values were calculated by non-linear regression analysis of competitive binding data using the “One site - Fit Ki” equation of the GraphPad Prism Software using the Kd values of the probe indicated above.

[2] = biological target: T2, αvβ6 on human bladder cancer 5637 cells (Homo sapiens, UniProt P06756+P18564); experiment: Effect of peptides on binding of anti-αvβ6 mAb 10D5 to 5637 cells (FACS); type: cell-based; conditions: competition with mAb 10D5
T2 construct: cell-surface expressed αvβ6 on human bladder cancer 5637 cells; host or cells: human bladder cancer 5637 cells

αvβ8 = αvβ8 (Homo sapiens, UniProt P06756+P26012); experiment: Competitive integrin binding assay (isoDGR/STV-HRP probe), αvβ8-coated plates; conditions: Table 3a and text; ± standard error of the mean; read-out: Ki αvβ8
Procedure: as §1, §2

[3] = test system: human bladder carcinoma 5637 cells; experiment: 5637 cell viability (PrestoBlue); type: cell-based; conditions: 48 h
Procedure: FIG. 12. Effect of peptides 4 and 5 on human bladder carcinoma 5637 cell viability. 5637 cells were seeded in a 96-well microtiterplate (20,000 cell/well) and cultured for 16 h at 37° C., 5% CO2. The day after the indicated doses of peptide 4 and 5 were added to the cells and left to incubate for additionally 48 h at 37° C., 5% CO2. Cell viability was assessed using the PrestoBlue* cell viability reagent (ThermoFisher) according to the manufacturer's instructions. Viability of the treated cells was normalized to that of untreated cells and is reported as a percentage (mean±SE of triplicate wells).

αvβ5 = biological target: T3, αvβ5 (Homo sapiens, UniProt P06756+P18084); experiment: Competitive integrin binding assay (isoDGR/STV-HRP probe), αvβ5-coated plates; conditions: Table 3a; ± standard error of the mean
T3 construct: purchased Immunological Sciences (Rome, Italy)
Procedure: as §1, §2

[4] = biological target: T4, αvβ6 on human keratinocytes (HaCat) (Homo sapiens, UniProt P06756+P18564); experiment: Effect of peptides on binding of anti-αvβ6 mAb 10D5 to HaCaT cells (FACS); type: cell-based; conditions: competition with mAb 10D5
T4 construct: endogenous in cells; host or cells: human skin keratinocytes HaCaT

α5β1 = biological target: T5, α5β1 (Homo sapiens, UniProt P05556+P08648); experiment: Competitive integrin binding assay (isoDGR/STV-HRP probe), α5β1-coated plates
T5 construct: purchased Immunological Sciences (Rome, Italy)
Procedure: as §1, §2

SMILES	half-life at 454 μg/ml [1] [h]	Ki (αvβ6) [nM]	binding to cell-surface expressed αvβ6 [2]	Ki (αvβ8) [nM]	cytotoxicity in vitro [3]	Ki (αvβ5) [nM]	binding to cell-surface expressed αvβ6 [4]	Ki (α5β1) [nM]
CC[C@H](C)[C@H](NC(=O)[C@H](CCCNC(=N)N)NC(=O)[C@H](CC(C)C)NC(=O)[C@H](CC(=O)O)NC(=O)CNC(=O)[C@H](CCCNC(=N)N)NC(=O)[C@H](CC(C)C)NC(=O)[C@@H](NC(=O)[C@H](CCC(=O)O)NC(=O)[C@@H](N)Cc1ccccc1)[C@@H](C)O)C(=O)N[C@@H](CC(C)C)C(=O)N[C@@H](CO)C(=O)N[C@H](C(=O)N[C@@H](CC(C)C)C(=O)N[C@@H](CCCNC(=N)N)C(=O)N[C@@H](Cc1c[nH]cn1)C(=O)N[C@@H](CCC(N)=O)C(=O)N[C@@H](CC(N)=O)C(=O)N[C@@H](CC(C)C)C(=O)N[C@@H](CC(C)C)C(=O)N[C@@H](CCCCN)C(=O)N[C@@H](CCC(=O)O)C(=O)N[C@@H](CC(C)C)C(=O)N[C@@H](CCC(N)=O)C(=O)N[C@@H](CC(=O)O)C(=O)O)[C@@H](C)CC [peptide 4] (H-FETLRGDLRILSILRHQNLLKELQD-OH; N-terminus and C-terminus assumed)	1.3	1.6 ± 0.3	bound cell-surface expressed αvβ6	8.5 ± 3.7	not cytotoxic	2410 ± 1590	bound cell-surface expressed αvβ6	
CC(C)C[C@H](NC(=O)[C@H](CC(=O)O)NC(=O)CNC(=O)[C@H](CCCNC(=N)N)NC(=O)[C@H](CC(C)C)NC(=O)[C@H](CC(N)=O)NC(=O)[C@@H]1CCCN1C(=O)[C@@H](NC(=O)[C@H](C)NC(=O)[C@@H](N)CC(N)=O)C(C)C)C(=O)N[C@@H](CCC(N)=O)C(=O)N[C@H](C(=O)N[C@@H](CC(C)C)C(=O)N[C@@H](C)C(=O)N[C@@H](CCC(N)=O)C(=O)N[C@@H](CCCCN)C(=O)N[C@H](C(=O)N[C@@H](C)C(=O)N[C@@H](CCCNC(=N)N)C(=O)N[C@H](C(=O)O)[C@@H](C)O)C(C)C)C(C)C [peptide 6]								2317 ± 10
